US20130130306A1, “ZN (II) BASED COLORIMETRIC SENSOR AND PROCESS FOR THE PREPARATION THEREOF” (COUNCIL OF SCIENTIFIC & INDUSTRIAL RESEARCH, priority 2010, published 2013)
Several values for one entry are separate records, joined by “and”; a condition that tells them apart may be missing. Equal values may be shown once.

Legend:
[1] = UV-vis spectral response and spectrophotometric titration with CTP; assay type: binding
Description: In order to examine the binding behaviour of the Zn-complex (L.Zn) (Scheme 1, Formula 1A) to various important anions (like ATP, CTP, ADP, AMP, PPi, H2PO4^−, SO4^2−, CH3CO2^−, I^−, Br^−, Cl^− and F^−) the following experiment was conducted. A solution (˜21 mM) for of sodium salts of ATP, CTP, ADP, AMP, PPi, H2PO4^−, SO4^−, CH3CO2^−, I^−, Br^−, Cl^−, and F^− were prepared using respective salt in 10 mM HEPES buffer solutions (pH 7.2) and was stored for use. Further, a solution (44.35 μM) of the compound L.Zn (Scheme 1, Formula 1A) was prepared using doubly-distilled and deionized water and stored. These stored solutions were used on the day of preparation of the solution for experiment. […]
(§1) A solution of L.Zn (Scheme 1, Formula 1A) (8.87 μM) in aqueous medium was treated with excess amount of ˜500 μM of different phosphate anions like H2PO4^−, PPi, AMP, ADP, ATP and CTP. […] Thus L.Zn (Scheme 1, Formula 1A) can bind ATP selectively among various phosphate anions and the color change associated with the binding of ATP can be detected through naked eye (FIG. 2).
A 1.0 mL of stored solution L.Zn (Scheme 1, Formula 1A) ([L.Zn]=8.95 μM) was put in a test-tube, such that, the final concentration of the L.Zn solution was 1.79 μM to this varying amount of CTP (0.1-4 mL of the stored CTP solution (12.71 mM) was added. Resulting solution was then diluted by addition of a 10 mM HEPES buffer solution (N-(2-hydroxyethyl)-piperazine-N′-2-ethanesulfonic acid) (pH 7.2) maintaining total volume of the resultant aliquot of 5 mL, which was used for spectrophotometric measurements by putting a quartz spectrophotometric cell (3.5 mL capacity). The total spectral change was measured using a spectrophotometer (Shimadzu UV-3101 PC) after appropriate base line correction. […]

[2] = Lipophilic nature of the dye
[3] = UV-vis spectral response and spectrophotometric titration with ATP; assay type: binding; settings: for binding constant for the formation of the complex L.Zn-ATP: spectrophotometric titration, pH 7.2, 10 mM HEPES, 25° C.
Description: In order to examine the binding behaviour of the Zn-complex (L.Zn) (Scheme 1, Formula 1A) to various important anions (like ATP, CTP, ADP, AMP, PPi, H2PO4^−, SO4^2−, CH3CO2^−, I^−, Br^−, Cl^− and F^−) the following experiment was conducted. A solution (˜21 mM) for of sodium salts of ATP, CTP, ADP, AMP, PPi, H2PO4^−, SO4^−, CH3CO2^−, I^−, Br^−, Cl^−, and F^− were prepared using respective salt in 10 mM HEPES buffer solutions (pH 7.2) and was stored for use. Further, a solution (44.35 μM) of the compound L.Zn (Scheme 1, Formula 1A) was prepared using doubly-distilled and deionized water and stored. These stored solutions were used on the day of preparation of the solution for experiment.
A test solution was used after 1 mL of a probe storage solution (the previously prepared and stored solution of 44.35 μM for the compound (L.Zn) (Scheme 1, Formula 1A of the present invention) was put in a 10 mL test tube, such that the final concentration of the probe storage solution was 8.87 μM. To this 4 mL of each of the previous prepared and stored solutions of ATP and other anions (CTP, ADP, AMP, PPi, H2PO4^−, SO4^2−, CH3CO2^−, I^−, Br^−, Cl^− and F^−) was added to the test tube such that the aliquot of each of the solutions was (17 mM). Then the resultant solution was used for UV-vis spectral measurement after appropriate base line correction using a double beam spectrophotometer (Shimadzu UV-3101 PC) and the results thereof are shown in FIG. 1.
Thus a red shift of 40 nm was observed on addition of the solution of ATP (˜1920 equiv.) to the solution of L.Zn (Scheme 1, Formula 1A). […]
as §1, with “2). […]” for “2).”
A 1.0 mL of stored solution of L.Zn (Scheme 1, Formula 1A) ([L.Zn]=47.3 μM) was put in a test-tube, such that, the final concentration of the L.Zn solution was 9.46 μM. To this varying amount of ATP (0.1-4 mL of the stored ATP solution (21.6 mM) was added. Resulting solution was then diluted by addition of a 10 mM HEPES buffer solution (pH 7.2) maintaining total volume of the resultant aliquot of 5 mL, which was used for spectrophotometric measurements using a double beam spectrophotometer and quartz spectrophotometric cell (3.5 mL capacity). The total spectral change was measured using a double beam spectrophotometer (Shimadzu UV-3101 PC) after appropriate base line correction. Slit width for all experiments during this titration was kept unchanged at 0.2 nm and the results thereof are shown in FIG. 3. […]

[4] = L.Zn 8.87 μM in aqueous medium, ~500 μM anion

Question: With `CN(C)c1ccc(N=Nc2ccc(S(=O)(=O)N3CCCNCCNCCCNCC3)cc2)cc1.O=[N+]([O-])[O-].O=[N+]([O-])[O-].[Zn+2]` [L.Zn] as the compound, how does the “color change on addition of CTP (naked eye)” value [1, 4] read?
Answer: The value was “Slight color change”.

Question: And the “red shift of absorption on addition of CTP” value ([1]; pH 7.2, L.Zn 8.87 μM, anion 17 mM)?
Answer: The value was 9 nm.

Question: What about the “binding constant for the formation of the complex L.Zn-CTP” value ([1]; spectrophotometric titration, pH 7.2, 10 mM HEPES, 25° C.) of the same compound?
Answer: The value was 220 (±+15) M^−1.

Question: What about the lipophilic nature [2] of the same compound?
Answer: Its lipophilic nature is “non-lipophilic”.

Question: And the “color change on addition of ATP (naked eye)” value [3, 4]?
Answer: The value was “significant color change”.

Question: And the “shift of absorption maxima on binding to ATP” value ([3]; from 463 nm to 503 nm, pH 7.2, ~1920 equiv. ATP)?
Answer: The value was 40 nm.

Question: What about the “binding constant for the formation of the complex L.Zn-ATP” value [3] of the same compound?
Answer: The value was 978 ± 15 M⁻¹ and 978 ± 4 M⁻¹.

Question: What about the “binding constant for the formation of the complex L.Zn-ATP” value ([3]; listed as compound of formula 1A) of the same compound?
Answer: The value was 978 ± 4 M⁻¹.
